{"source": "patent US20240156856A1", "about": "“NOVEL APPLICATIONS OF HYALURONIC ACID FOR TREATMENT OF PAIN AND PRURITIS” (THE REGENTS OF THE UNIVERSITY OF CALIFORNIA, priority 2022, published 2024)", "key": {"[1]": {"test_system": "rats with paclitaxel CIPN", "experiment": "Paclitaxel CIPN mechanical hyperalgesia, Randall-Selitto paw-withdrawal test", "type": "in vivo, Sprague-Dawley rats", "conditions": "male rats; paclitaxel 1 mg/kg i.p., 4 doses, day 7", "method": "(§1) Experimental animals. Experiments were performed on 220-400 g male and female Sprague-Dawley rats, purchased from Charles River Laboratories (Hollister, CA, USA), housed three per cage, under a 12-hour light/dark cycle, in a temperature- and humidity-controlled animal care facility at the University of California, San Francisco. Food and water were available ad libitum. Experimental protocols were approved by the University of California, San Francisco, Institutional Animal Care and Use Committee, and adhered to the National Institutes of Health Guidelines for the care and use of laboratory animals.\n(§2) Measurement of nociceptive threshold. Mechanical nociceptive threshold was quantified with an Ugo Basile Analgesymeter (Stoelting, Wood Dale, IL, USA), used to perform the Randall-Selitto paw-withdrawal test [61; 68; 69]. This device uses a dome-shaped plinth to apply a mechanical force that increases linearly with time, to the dorsum of a rat's hindpaw. To perform the Randall-Selitto paw-withdrawal test, rats were placed in cylindrical acrylic restrainers with lateral ports that allow access to the hind paw, as described previously. Rats were acclimatized to the testing procedure by placing them in restrainers for 1 h per day for 3 consecutive daily training sessions, and for 30-40 min prior to experiments.\n(§3) Mechanical nociceptive threshold is defined as the force, in grams, applied by the plinth to the dorsum of the hindpaw, at which a rat withdraws its paw from the stimulus. Baseline paw-withdrawal threshold is defined as the mean of three readings taken before administration of test agents. To minimize experimenter bias, individuals conducting experiments were blinded to experimental treatments. Each experiment was performed on a different group of rats. Data are presented as mechanical nociceptive threshold, in grams (g) or percentage change from preintervention baseline.\n(§4) Hyaluronans were initially dissolved in distilled water (dH2O) at a concentration of 10 μg/μL, stock solution, and further diluted by adding DMSO with three final concentrations of hyaluronan (1, 2 and 4 μg/μL), protamine or terpene; unless otherwise stated, the final concentration of DMSO was 75%. The DMSO vehicle was 75% DMSO in 0.9% saline. In one experiment, 500-1200 kDa hyaluronan was administered topically in 0.9% saline vehicle. PGE2 was dissolved in 0.9% saline at the same final concentration that we previously injected intradermally (100 ng/5 μL). In the experiments in which hyaluronan was dissolved in protamine or terpene vehicle, protamine was first dissolved in distilled water (dH2O) to a concentration of 5 μg/μ1, stock solution of hyaluronan was combined with protamine at the final concentration of 2 μg/μ1, in a volume of 3 μl, for topical administration; terpene was first dissolved in dH2O at the concentration of 2 μg/μ1, then hyaluronan was dissolved in stock solution of terpene to its final concentration of 2 μg/μ1, in a volume of 3 μl, for topical administration).\nPaclitaxel CIPN: Paclitaxel was dissolved in Cremophor EL and ethanol (1:1) [1; 6; 20; 22] and diluted in 0.9% saline to a concentration of 1 mg/mL, just prior to its intraperitoneal (i.p.) administration (1 mg/kg, i.p.) [19; 42] to rats briefly anesthetized with isoflurane (2.5% in O2), every other day for a total of 4 doses.\nHyaluronans (30 μL) were administered topically on the dorsum of the hind paw, dispensed from a P200 pipette (Gilson, Middleton, WI, USA) with a plastic pipette tip and then spread manually.\nAntisense oligodeoxynucleotides (ODNs).\nBefore use, ODNs were reconstituted in nuclease-free 0.9% saline and then administered by the intrathecal (i.t.) route. As described previously, rats were anesthetized with isoflurane (2.5% in O2) and 120 μg of ODN, in a volume of 20 μL, injected i.t., using a syringe ([…]) attached to a 29-gauge hypodermic needle that was inserted into the subarachnoid space, between the L4 and L5 vertebrae. […]"}, "[2]": {"test_system": "rats with oxaliplatin CIPN", "experiment": "Oxaliplatin CIPN mechanical hyperalgesia, Randall-Selitto paw-withdrawal test", "type": "in vivo, Sprague-Dawley rats", "conditions": "for CIPN hyperalgesia, effect of hyaluronan molecular weight range: male rats with oxaliplatin CIPN, topical, combined with DMSO", "method": "as §1, §2, §3, §4\nOxaliplatin CIPN: Oxaliplatin was freshly dissolved in 0.9% saline at a concentration of 2 mg/mL just prior to its tail vein intravenous (i.v.) administration (1 mL/kg), to rats briefly anesthetized with isoflurane (2.5% in O2).\nHyaluronans (30 μL) were administered topically on the dorsum of the hind paw, dispensed from a P200 pipette (Gilson, Middleton, WI, USA) with a plastic pipette tip and then spread manually. […]\nBefore use, ODNs were reconstituted in nuclease-free 0.9% saline and then administered by the intrathecal (i.t.) route. As described previously, rats were anesthetized with isoflurane (2.5% in O2) and 120 μg of ODN, in a volume of 20 μL, injected i.t., using a syringe ([…]) attached to a 29-gauge hypodermic needle that was inserted into the subarachnoid space, between the L4 and L5 vertebrae. The i.t. site of the injectate was confirmed by a sudden flick of the rat's tail, a reflex evoked by subarachnoid space access and bolus i.t. injection. […]"}, "rats": {"test_system": "rats", "conditions": "previously shown; cited from earlier work"}, "[3]": {"test_system": "5-HT-induced scratching behavior in rats", "experiment": "5-HT-induced scratching (itch) behavior", "type": "in vivo", "conditions": "topical 100 μg in 50 μl 75% DMSO in water, 30 and 5 mins before 5-HT 200 μg i.d.", "method": "Topical hyaluronan attenuates itch behavior in rats. Intradermal administration of serotonin (5-HT) elicited acute scratching behavior, using the method of Nojima and Carstens {Nojima and Carstens, 2003, #99335; PMID: 12814838}. Rats were acclimated to a testing chamber for 30 min, and then briefly anesthetized with 2% isoflurane, during which the fur over the nape of the neck was shaved, and 5-HT (200 μg in 10 μl 0.9% saline vehicle) injected with a 30 gauge needle. In the topical hyaluronan group, hyaluronan (100 μg in 50 μl 75% DMSO in water vehicle) was applied to the skin 30 mins and again 5 mins before administration of 5-HT. Rats were placed back into testing chambers and their behavior video recorded for 40 min. Number of hind paw scratches directed at the injection site were counted by watching video playback at half normal speed, and total number of scratches in 2-min intervals recorded. Rats were treated with 5-HT alone and topical hyaluronan with 5-HT, with 4 days between experimental sessions, allowing for use of paired t-tests to compare data. Data are presented as cumulative number of scratches (FIG. 9A), and as total scratches over the 40-min observation period (FIG. 9B). […] See also, FIG. 10, which includes additional data showing that topical hyaluronan attenuates 5-HT-induced scratching behavior. […] Data are presented as cumulative number of scratches."}, "[4]": {"test_system": "PGE2 hyperalgesia in male and female rats", "experiment": "PGE2-induced mechanical hyperalgesia, Randall-Selitto paw-withdrawal test", "type": "in vivo, Sprague-Dawley rats", "conditions": "100 ng intradermally, dorsum of hind paw, male and female rats", "method": "as §1, §2, §3\nHyaluronans were initially dissolved in distilled water (dH2O) at a concentration of 10 μg/μL, stock solution, and further diluted by adding DMSO with three final concentrations of hyaluronan (1, 2 and 4 μg/μL), protamine or terpene; unless otherwise stated, the final concentration of DMSO was 75%. The DMSO vehicle was 75% DMSO in 0.9% saline. In one experiment, 500-1200 kDa hyaluronan was administered topically in 0.9% saline vehicle. PGE2 was dissolved in 0.9% saline at the same final concentration that we previously injected intradermally (100 ng/5 μL). […]"}, "[5]": {"test_system": "rats with bortezomib CIPN", "experiment": "Bortezomib CIPN mechanical hyperalgesia, Randall-Selitto paw-withdrawal test", "type": "in vivo, Sprague-Dawley rats", "conditions": "male rats; bortezomib 0.2 mg/kg i.v., 4 doses, day 7", "method": "as §1, §2\nMechanical nociceptive threshold is defined as the force, in grams, applied by the plinth to the dorsum of the hindpaw, at which a rat withdraws its paw from the stimulus. Baseline paw-withdrawal threshold is defined as the mean of three readings taken before administration of test agents. To minimize experimenter bias, individuals conducting experiments were blinded to experimental treatments. Each experiment was performed on a different group of rats. Data are presented as mechanical nociceptive threshold, in grams (g) or percentage change from preintervention baseline. […]"}}}
{"compound": "CC(=O)O[C@H]1C(=O)[C@@]2(C)[C@H]([C@H](OC(=O)c3ccccc3)[C@]3(O)C[C@H](OC(=O)[C@H](O)[C@@H](NC(=O)c4ccccc4)c4ccccc4)C(C)=C1C3(C)C)[C@]1(OC(C)=O)CO[C@@H]1C[C@@H]2O", "note": "[Paclitaxel, paclitaxel, reference compound]", "values": [{"measurement": "mechanical nociceptive threshold after chemotherapy", "setting": "[1]", "result": "decreased mechanical nociceptive threshold"}]}
{"compound": "hyaluronan [1500-1750 kDa hyaluronan]", "values": [{"measurement": "CIPN hyperalgesia, effect of hyaluronan molecular weight range", "setting": "[2]", "result": "produced robust anti-hyperalgesia, of similar magnitude and duration"}]}
{"compound": "hyaluronan [low molecular weight hyaluronan, reference compound]", "values": [{"measurement": "nociceptive effect of intradermal injection", "setting": "rats", "result": "induced hyperalgesia"}]}
{"compound": "hyaluronan [70-120 kDa hyaluronan]", "values": [{"measurement": "CIPN hyperalgesia, effect of hyaluronan molecular weight range", "setting": "[2]", "result": "did not attenuate CIPN hyperalgesia"}]}
{"compound": "O=C1[O][Pt]2([NH][C@@H]3CCCC[C@H]3[NH]2)[O]C1=O", "note": "[Oxaliplatin, oxaliplatin, reference compound]", "values": [{"measurement": "mechanical nociceptive threshold after chemotherapy", "setting": "[2]; male rats, oxaliplatin 2 mg/kg i.v., day 7", "result": "decreased mechanical nociceptive threshold"}]}
{"compound": "hyaluronan [150-300 kDa hyaluronan]", "values": [{"measurement": "CIPN hyperalgesia, effect of hyaluronan molecular weight range", "setting": "[2]", "result": "produced robust anti-hyperalgesia, of similar magnitude and duration"}]}
{"compound": "hyaluronan", "values": [{"measurement": "number of 5-HT scratches over 40 min", "setting": "[3]", "result": "significantly attenuated the number of 5-HT scratches"}]}
{"compound": "hyaluronan [300-500 kDa hyaluronan]", "values": [{"measurement": "CIPN hyperalgesia, effect of hyaluronan molecular weight range", "setting": "[2]", "result": "produced robust anti-hyperalgesia, of similar magnitude and duration"}]}
{"compound": "CCCCC[C@H](O)/C=C/[C@H]1[C@H](O)CC(=O)[C@@H]1C/C=C\\CCCC(=O)O", "note": "[PGE2, prostaglandin E2, reference compound]", "values": [{"measurement": "mechanical hyperalgesia after intradermal PGE2", "setting": "[4]", "result": "produced robust mechanical hyperalgesia"}]}
{"compound": "CC(C)C[C@H](NC(=O)[C@H](Cc1ccccc1)NC(=O)c1cnccn1)B(O)O", "note": "[Bortezomib, bortezomib, reference compound]", "values": [{"measurement": "mechanical nociceptive threshold after chemotherapy", "setting": "[5]", "result": "decreased mechanical nociceptive threshold"}]}
